Laboratory results published in patent US10385012B2, “Thioamides and amides for controlling animal pests” (BASF SE, priority 2013, dated 2019).

Assays:
Format in all cases: in vivo
[1] = tested on: boll weevil (Anthonomus grandis); assay: Boll weevil control, 24-well microtiter plates with insect diet and eggs; details: 120 h, egg and larval mortality after 5 days, in comparison with untreated controls
Description: (§1) For evaluating control of boll weevil (Anthonomus grandis) the test unit consisted of 24-well-microtiter plates containing an insect diet and 20-30 A. grandis eggs. The compounds were formulated using a solution containing 75% v/v water and 25% v/v DMSO. Different concentrations of formulated compounds were sprayed onto the insect diet at 20 μl, using a custom built micro atomizer, at two replications. After application, microtiter plates were incubated at about 23±1° C. and about 50±5% relative humidity for 5 days. Egg and larval mortality was then visually assessed.

[2] = tested on: Mediterranean fruitfly (Ceratitis capitata); assay: Mediterranean fruitfly control, microtiter plates with insect diet and eggs; details: 120 h, egg and larval mortality after 5 days, in comparison with untreated controls
Description: as §1, with “Mediterranean fruitfly (Ceratitis capitata)” for “boll weevil (Anthonomus grandis)”, “microtiter” for “24-well-microtiter”, “50-80 C. capitata” for “20-30 A. grandis”, “5” for “20”, “28±1°” for “23±1°”, “80±5%” for “50±5%”

[3] = tested on: Silverleaf whitefly (Bemisia argentifolii); assay: Silverleaf whitefly test on sprayed cotton plants; details: 72 h, whitefly adults on cotton, 3 days after treatment, in comparison with untreated controls
Description: The active compounds were formulated in cyclohexanone as a 10,000 ppm solution supplied in 1.3 ml ABgene® tubes. These tubes were inserted into an automated electrostatic sprayer equipped with an atomizing nozzle and they served as stock solutions for which lower dilutions were made in 50% acetone:50% water (v/v). A nonionic surfactant (Kinetic®) was included in the solution at a volume of 0.01% (v/v). Cotton plants at the cotyledon stage (one plant per pot) were sprayed by an automated electrostatic plant sprayer equipped with an atomizing spray nozzle. The plants were dried in the sprayer fume hood and then removed from the sprayer. Each pot was placed into a plastic cup and 10 to 12 whitefly adults (approximately 3-5 days old) were introduced. The insects were collected using an aspirator and 0.6 cm, nontoxic Tygon® tubing (R-3603) connected to a barrier pipette tip. The tip, containing the collected insects, was then gently inserted into the soil containing the treated plant, allowing insects to crawl out of the tip to reach the foliage for feeding. Cups were covered with a reusable screened lid (150-micron mesh polyester screen PeCap from Tetko, Inc.). […] Mortality was assessed 3 days after treatment, compared to untreated control plants.

[4] = tested on: Green soldier stink bug (Nezara viridula); assay: Green soldier stink bug test on sprayed soybean pods; details: 120 h, 3rd instar N. viridula on soybean pods, after 5 days, in comparison with untreated controls
Description: The active compound is dissolved at the desired concentration in a mixture of 1:1 (vol:vol) distilled water:aceteone. Surfactant (Kinetic HV) is added at a rate of 0.01% (vol/vol). The test solution is prepared at the day of use. Soybean pods were placed in microwavable plastic cups lined with moist filter paper and inoculated with ten 3rd instar N. viridula. Using a hand atomizer, an approximately 2 ml solution is sprayed into each cup. Treated cups were kept at about 28-29° C. and relative humidity of about 50-60%. Percent mortality was recorded after 5 days.

[5] = tested on: Southern armyworm (Spodoptera eridania); assay: Southern armyworm test on sprayed lima bean plants; details: 500 ppm; armyworm larvae on lima bean, 4 days after treatment; in comparison with untreated controls
Description: The active compounds were formulated in cyclohexanone as a 10,000 ppm solution supplied in 1.3 ml ABgene® tubes. These tubes were inserted into an automated electrostatic sprayer equipped with an atomizing nozzle and they served as stock solutions for which lower dilutions were made in 50% acetone:50% water (v/v). A nonionic surfactant (Kinetic®) was included in the solution at a volume of 0.01% (v/v). Lima bean plants (variety Sieva) were grown 2 plants to a pot and selected for treatment at the 1st true leaf stage. Test solutions were sprayed onto the foliage by an automated electro-static plant sprayer equipped with an atomizing spray nozzle. The plants were dried in the sprayer fume hood and then removed from the sprayer. Each pot was placed into perforated plastic bags with a zip closure. Ten to 11 armyworm larvae were placed into the bag and the bags zipped closed. Test plants were maintained in a growth room at 25° C. and 20-40% relative humidity for 4 days, avoiding direct exposure to fluorescent light (24 hour photoperiod) to prevent trapping of heat inside the bags. Mortality and reduced feeding were assessed 4 days after treatment, compared to untreated control plants.

[6] = tested on: yellow fever mosquito (Aedes aegypti); assay: whole plant or invertebrate; details: 48 h, larval mortality after 2 days, in comparison with untreated controls
Description: For evaluating control of yellow fever mosquito (Aedes aegypti) the test unit consisted of 96-well-microtiter plates containing 200 μl of tap water per well and 5-15 freshly hatched A. aegypti larvae. The compounds or mixtures were formulated using a solution containing 75% water and 25% DMSO. Different concentrations of formulated compounds or mixtures were sprayed onto the insect diet at 2.5 μl, using a custom built micro atomizer, at two replications. After application, microtiter plates were incubated at 28±1° C., 80±5% RH for 2 days. Larval mortality was then visually assessed.

C#Cc1ccc(CC(C#N)(C(=O)NC)c2ccc(F)cc2)cc1 (centres unmarked) [III-4, 2-cyano-3-(4-ethynylphenyl)-2-(4-fluorophenyl)-N-methyl-propanamide]
mortality at 2500 ppm [1]: ≥ 75% | mortality at 2500 ppm [2]: ≥ 75%

C#Cc1ccc(CC(C#N)(C(N)=S)c2ccccc2)cc1 (centres unmarked) [II-1, 2-cyano-3-(4-ethynylphenyl)-2-phenylpropanethioamide]
mortality at 2500 ppm [1]: ≥ 75% | mortality at 500 ppm [3]: ≥ 75% | mortality at 500 ppm [4]: ≥ 75%

N#CC(Cc1ccc(C(F)(F)F)cc1)(C(N)=O)c1ccc(F)cc1 (centres unmarked) [II-2]
mortality [5]: at least 75%

C#Cc1ccc(CC(C#N)(C(=S)NC)c2ccc(F)cc2)cc1 (centres unmarked) [III-1, 2-cyano-3-(4-ethynylphenyl)-2-(4-fluorophenyl)-N-methyl-propanethioamide]
mortality at 2500 ppm [1]: ≥ 75% | mortality at 2500 ppm [6]: ≥ 75%
